Measured values published in patent publication US8507562B2, “Synthesis of (1)-beta-elemene, (-)-beta-elemenal, (-)-beta-elemenol, (-)-beta-elemene fluoride and their analogues, intermediates, and composition and uses thereof” (HYWE Pharmaceuticals, Inc., priority 2004, dated 2013).
Where two headings read alike, the source gives them in different places.

Assays:
[1] = system: Colon Cancer Cells HCT-15
Procedure: Cells were maintained at 37° C. in a humidified atmosphere including 5% CO2. […] Drugs were dissolved in 100% DMSO and then diluted in medium for experiments.

[2] = Blood brain barrier passage of 3H labeled Elemene; format: in vivo, experimental animals; conditions: own animal experiment, tritium labeled, parent, derivatives and/or metabolites not distinguished
From the text: But no careful experiments were done to figure out if it is beta-elemene itself, or its derivatives, or its metabolite or a combination of the above, which pass the BBB. Thus how Elemene works to treat brain tumor is unknown.

[3] = system: human breast cancer Bcap-37
[4] = system: Non-small-cell lung cancer (NSCLC) cell lines; assay: Mechanism in NSCLC cells
A549 lung cancer = assay: MTT survival assay; conditions: 2 × 10^4 cells/ml
Procedure: (§1) The MTT assay is a commonly used method in evaluation of cell survival, based on the ability of viable cells to convert MTT, a soluble tetrazolium salt [3-(4,5-dimethylthuazole-2-yl)-2,5 diphenyl tetrazolium bromide], into an insoluble formazan precipitate, which is quantitated by spectrophotometry following solubilization in dimethyl sulfoxide (DMSO).
In brief, carcinoma cells treated with test articles alone, in 96-well tissue culture dishes were incubated with MTT (2 μg/ml) for 4 h. The cells were then solubilized in 125 μl of DMSO and absorbance readings were taken using a 96-well Opsys MRI Microplate Reader (ThermoLabsystems; Chantilly, Va.). The amount of MTT dye reduction was calculated based on the difference between absorbance at 570 nm and at 630 nm. Cell viability in treated cells was expressed as the amount of dye reduction relative to that of untreated control cells. The wells that contained only medium and 10 μl of MTT were used as blanks for the plate reader.

[5] = system: human breast cancer ao10/17
[6] = system: human glioma G422 (xenograph in brain); assay: Tumor xenographed in mice brain, survival; format: in vivo
Procedure: Mice model with tumor xenographed in mice brain: Glioma cell line G-422 or SHG44 (log phase) were diluted to 2×10^7/ml in cell culture hood (no bacteria environment). Each mouse was injected with 0.05 ml of tumor cell in its brain. […] The survival time of these mice was recorded in the next 30 days. The life extension was calculated using the following formula: Life Extension Rate=[( […])/Average survival days of control group[×100 Results: […]

[7] = 3H labeled Elemene, intravenous or oral, radioactivity detected in brain; cited from earlier work
STTG1 brain tumor = assay: MTT survival assay; format: cell-based, human
Procedure: as §1
The cells were then solubilized in 125 μl of DMSO and absorbance readings were taken using a 96-well Opsys MRI Microplate Reader (ThermoLabsystems; Chantilly, Va.). The amount of MTT dye reduction was calculated based on the difference between absorbance at 570 nm and at 630 nm. Cell viability in treated cells was expressed as the amount of dye reduction relative to that of untreated control cells. The wells which contained only medium and 10 μl of MTT were used as blanks for the plate reader. Three sets of experiments were performed in 8-12 wells for each treatment.

[8] = 12.5 mg/kg/time iv × 10 bid, listed as β-Elemene
[9] = 25 mg/kg/time iv × 10 bid, listed as β-Elemene
[10] = 50 mg/kg/time iv × 10 bid, listed as β-Elemene

With (−)-Beta-elemene the IC50 [1] was 194 ± 19.3 µg/mL, the “blood brain barrier (BBB) passage” value [2] was “pass the blood-brain-barrier” and the “blood brain barrier (BBB) passage” value ([2]; listed as beta-elemene) was “can pass blood brain barrier”. The “Inhibition Rate %” value ([3]; 12.5 mg/kg/time iv × 10 bid) was 36.09%, the “Tumor Weight (g) X ± SD” value ([3]; 12.5 mg/kg/time iv × 10 bid) was 0.870 ± 0.04 g and the “Inhibition Rate %” value [3, 8] was 33.08%. For the same substance, the “Inhibition Rate %” value ([3]; 25 mg/kg/time iv × 10 bid) was 45.31%, the “Tumor Weight (g) X ± SD” value ([3]; 25 mg/kg/time iv × 10 bid) was 0.738 ± 0.07 g and the “Inhibition Rate %” value [3, 9] was 43.23%. For the same substance, the “Inhibition Rate %” value ([3]; 50 mg/kg/time iv × 10 bid) was 51.33%, the “Tumor Weight (g) X ± SD” value ([3]; 50 mg/kg/time iv × 10 bid) was 0.675 ± 0.10 g and the “Inhibition Rate %” value [3, 10] was 48.08%. The apoptosis [4] was “triggered apoptosis”, the cell cycle effect [4] was “arrest NSCLC cells at cell cycle G2-M phase” and the IC50 (A549 lung cancer; A549, 24 h) was 62.0 µg/mL. For the same substance, the IC50 (A549 lung cancer; A549, 48 h) was 55.6 µg/mL, the IC50 (A549 lung cancer; A549, 72 h) was 56.4 µg/mL and the “Inhibition Rate %” value ([5]; 12.5 mg/kg/time iv × 10 bid) was 28.28%. For the same substance, the “Tumor Weight (g) X ± SD” value ([5]; 12.5 mg/kg/time iv × 10 bid) was 0.827 ± 0.06 g, the “Inhibition Rate %” value [5, 8] was 31.08% and the “Inhibition Rate %” value ([5]; 25 mg/kg/time iv × 10 bid) was 35.03%. For the same substance, the “Tumor Weight (g) X ± SD” value ([5]; 25 mg/kg/time iv × 10 bid) was 0.765 ± 0.1 g, the “Inhibition Rate %” value [5, 9] was 36.25% and the “Inhibition Rate %” value ([5]; 50 mg/kg/time iv × 10 bid) was 44.14%. The “Tumor Weight (g) X ± SD” value ([5]; 50 mg/kg/time iv × 10 bid) was 0.643 ± 0.1 g, the “Inhibition Rate %” value [5, 10] was 46.42% and the “Average Life Span (day) X± SD” value ([6]; 7.5 mg/kg/time iv × 10 qd) was 12.3 ± 3.4 days. For the same substance, the “Average Life Span (day) X± SD” value ([6]; 15 mg/kg/time iv × 10 qd) was 13.1 ± 2.7 days, the “Average Life Span (day) X± SD” value ([6]; 30 mg/kg/time iv × 10 qd) was 14.1 ± 2.3 days and the “Average Life Span (day) X± SD” value ([6]; 60 mg/kg/time iv × 10 qd) was 14.9 ± 2.1 days. For the same substance, the “blood brain barrier (BBB) passage” value [7] was “passes the blood brain barrier”, the IC50 (STTG1 brain tumor; STTG1, 24 h) was 112 µg/mL and the IC50 (STTG1 brain tumor; STTG1, 48 h) was 115 µg/mL. For the same substance, the IC50 (STTG1 brain tumor; STTG1, 72 h) was 112 µg/mL.
